{"source": "patent US20090232919A1", "about": "(priority 2006, published 2009)", "format_in_all_cases": "in vivo, Male Sprague-Dawley rats", "key": {"[1]": {"tested_on": "Acetaminophen-Induced Liver Injury in Rat Model", "experiment": "Orally administrated extract and compound on acetaminophen-induced liver injury in rat model", "settings": "for increased activity of blood ALT induced by acetaminophen / increased activity of blood LDH induced by acetaminophen: once a day for 4 days; for central necrosis and inflammation of liver (histo-pathological examination): oral, acetaminophen-induced, FIG. 3", "description": "(§1) Male Sprague-Dawley rats (Samtako Co. Korea) weighing 140-160 g were used in the experiment and were allowed to access to feed (Harlan, teklan, USA) and drinking water. All animals were maintained in a controlled environment with temperatures at 22±2° C. and humidity at 55±5% with 12 hours of light and dark cycles for at least one week prior to use.\n24 hours after the end of treatment, the acetaminophen solution prepared in Reference Example (1.2 g/kg) was orally administrated into the rats to induce hepatotoxicity.\n24 hours after the treatment, the abdominal cavity was excised to deliver liver organ and blood to test the effect of the inventive extract and compound obtained in Examples on liver injury.\nThe effect on the indicators of liver injury known in the art, i.e., ALT (R. Rej, Clin. Chem., 24, pp 1971-1979, 1978) and LDH (S. Sherlock et al., Blackwell Science, London, p 23, 2002) activity in rat blood was determined.\nThe histo-pathological examination on liver organ was performed to determine the effect of inventive extract and compound on the necrosis and inflammation of liver induced by acetaminophen."}, "[2]": {"tested_on": "GSH-Depleted Liver Injury in Rat Model", "experiment": "Effect on GSH-depleted (BSO) acetaminophen liver injury in rat model", "settings": "for necrosis of hepatic cell: orally administrated", "description": "as §1\n3 hours after the end of treatment, 2 mM/kg of BSO (buthionine sulfoximine) was intraperitoneally administrated to the rats to deplete GSH (glutathione) level of the rats. 1 hr after the treatment, the acetaminophen solution prepared in Reference Example (1.2 g/kg) was orally administrated into the rats to induce hepatotoxicity.\n24 hours after the inducement, the survival rate of the rats was determined and the abdominal cavity was excised to deliver liver organ to test the effect of the inventive extract and compound obtained in Examples on liver injury."}, "[3]": {"tested_on": "Acetaminophen-Induced Liver Injury in Rat Model", "experiment": "Intravenously administrated extract and compound on acetaminophen-induced liver injury in rat model", "description": "as §1\n3 hours after the end of treatment, the acetaminophen solution prepared in Reference Example (1.2 g/kg) was orally administrated into the rats to induce hepatotoxicity.\n24 hours after the inducement, the abdominal cavity was excised to deliver liver organ and blood to test the effect of the inventive extract and compound obtained in Examples on liver injury."}, "[4]": {"tested_on": "acetaminophen-induced hepatotoxicity in rats", "experiment": "Treating effect on liver injury (dosing after acetaminophen)", "settings": "50 mg/kg orally from 1 hour after acetaminophen, versus PEG400 (40%) negative control; FIG. 7", "description": "as §1\nThe acetaminophen solution prepared in Reference Example (1.2 g/kg) was orally administrated into the rats to induce hepatotoxicity. […] All the testing rats had been starved for 24 hours prior to acetaminophen-administration.\n24 hours after the inducement, the abdominal cavity was excised to deliver liver organ to test the effect of the inventive compound obtained in Examples on liver injury."}, "[5]": {"settings": "oral dose of 50 mg/kg and 100 mg/kg"}, "[6]": {"settings": "GSH-depleted (BSO) + acetaminophen, FIG. 6b"}, "[7]": {"settings": "oral dose of 25 mg/kg and 50 mg/kg, FIG. 1"}, "[8]": {"settings": "intravenous dose of 5 mg/kg and 15 mg/kg, FIG. 4"}}, "note": "Marks after values point to notes of the source that are not given here.", "data": [{"compound": "COC(=O)c1cc(OC)c2c(c1-c1c(C(=O)OC)cc(OC)c3c1OCO3)OCO2", "note": "[DDB, dimethyl-4,4′-dimethoxy-5,6,5′,6′-dimethylene dioxybiphenyl-2,2′-dicarboxylate]", "values": [{"measurement": "Central vein neighboring cell necrosis (N)", "setting": "[1]; APAP, 50 mg/kg, p.o, n = 10", "result": "2.38 ± 0.5^"}, {"measurement": "Hepatic cell degeneration (HD) Central Vein (CV)", "setting": "[1]; APAP, 50 mg/kg, p.o, n = 10", "result": "0.4 ± 0.2"}, {"measurement": "Hepatic cell degeneration (HD) Limbic region", "setting": "[1]; APAP, 50 mg/kg, p.o, n = 10", "result": 0}, {"measurement": "Hepatic cell degeneration (HD) Middle Region", "setting": "[1]; APAP, 50 mg/kg, p.o, n = 10", "result": "0.2 ± 0.2"}, {"measurement": "Inflammatory cell", "setting": "[1]; APAP, 50 mg/kg, p.o, n = 10", "result": "0^##"}, {"measurement": "Survival ratio (%)", "setting": "[1]; APAP, 50 mg/kg, p.o, n = 10", "result": 100, "unit": "%"}, {"measurement": "increased activity of blood ALT induced by acetaminophen", "setting": "[1]; [5]", "result": "strikingly reduce"}, {"measurement": "increased activity of blood LDH induced by acetaminophen", "setting": "[1]; [5]", "result": "strikingly reduce"}, {"measurement": "central necrosis and inflammation of liver (histo-pathological examination)", "setting": "[1]", "result": "reduced little"}, {"measurement": "necrosis of hepatic cell", "setting": "[2]; [6]", "result": "could not reduce"}]}, {"compound": "O=C1C[C@@H](c2ccc(O)cc2)Oc2cc(O)ccc21", "note": "[LQ, liquiritigenin]", "values": [{"measurement": "Central vein neighboring cell necrosis (N)", "setting": "[1]; APAP, 50 mg/kg, p.o, n = 10", "result": "0.8 ± 0.8"}, {"measurement": "Hepatic cell degeneration (HD) Central Vein (CV)", "setting": "[1]; APAP, 50 mg/kg, p.o, n = 10", "result": "0.8 ± 0.8"}, {"measurement": "Hepatic cell degeneration (HD) Limbic region", "setting": "[1]; APAP, 50 mg/kg, p.o, n = 10", "result": "0.2 ± 0.2"}, {"measurement": "Hepatic cell degeneration (HD) Middle Region", "setting": "[1]; APAP, 50 mg/kg, p.o, n = 10", "result": "0.6 ± 0.6"}, {"measurement": "Inflammatory cell", "setting": "[1]; APAP, 50 mg/kg, p.o, n = 10", "result": "0^##"}, {"measurement": "increased activity of blood ALT induced by acetaminophen", "setting": "[1]; [7]", "result": "significantly reduced"}, {"measurement": "increased activity of blood LDH induced by acetaminophen", "setting": "[1]; [7]", "result": "significantly reduced"}, {"measurement": "central necrosis and inflammation of liver (histo-pathological examination)", "setting": "[1]", "result": "strikingly reduced"}, {"measurement": "Central vein neighboring cell necrosis (N)", "setting": "[3]; APAP, 5 mg/kg, i. v", "result": "0.2 ± 0.2"}, {"measurement": "Hepatic cell degeneration (HD) Central Vein (CV)", "setting": "[3]; APAP, 5 mg/kg, i. v", "result": "0.8 ± 0.4"}, {"measurement": "Hepatic cell degeneration (HD) Limbic region", "setting": "[3]; APAP, 5 mg/kg, i. v", "result": 0}, {"measurement": "Hepatic cell degeneration (HD) Middle Region", "setting": "[3]; APAP, 5 mg/kg, i. v", "result": "0.6 ± 0.4"}, {"measurement": "Inflammatory cell", "setting": "[3]; APAP, 5 mg/kg, i. v", "result": 0}, {"measurement": "increased activity of blood ALT induced by acetaminophen", "setting": "[3]; [8]", "result": "significantly reduced"}, {"measurement": "increased activity of blood LDH induced by acetaminophen", "setting": "[3]; [8]", "result": "significantly reduced"}, {"measurement": "central necrosis and inflammation of liver", "setting": "[3]; intravenously administrated, FIG. 5", "result": "strikingly reduced"}, {"measurement": "Hepatic cell degeneration (HD) Central Vein (CV)", "setting": "[2]; APAP + BSO, 15 mg/kg,i.v.", "result": "0.2 ± 0.2"}, {"measurement": "Hepatic cell degeneration (HD) Limbic region", "setting": "[2]; APAP + BSO, 15 mg/kg,i.v.", "result": "2 ± 0.03"}, {"measurement": "Hepatic cell degeneration (HD) Middle Region", "setting": "[2]; APAP + BSO, 15 mg/kg,i.v.", "result": "0.2 ± 0.2"}, {"measurement": "Hepatic cell degeneration (HD) Central Vein (CV)", "setting": "[2]; APAP + BSO, 50 mg/kg, p.o", "result": "1.5 ± 0.5"}, {"measurement": "Hepatic cell degeneration (HD) Limbic region", "setting": "[2]; APAP + BSO, 50 mg/kg, p.o", "result": "1.5 ± 0.5"}, {"measurement": "Hepatic cell degeneration (HD) Middle Region", "setting": "[2]; APAP + BSO, 50 mg/kg, p.o", "result": "1.5 ± 0.5"}, {"measurement": "Inflammatory cell", "setting": "[2]; APAP + BSO, 50 mg/kg, p.o", "result": 0}, {"measurement": "survival rate", "setting": "[2]; GSH-depleted (BSO) + acetaminophen, versus 26.7% without treatment", "result": "strikingly increased"}, {"measurement": "hepatic injury", "setting": "[2]; intravenously administrated for 2 days, GSH-depleted, FIG. 6b", "result": "apparently inhibits"}, {"measurement": "necrosis of hepatic cell", "setting": "[2]; [6]", "result": "strikingly reduced"}, {"measurement": "necrosis of hepatic cell", "setting": "[4]", "result": "more strikingly inhibited"}]}]}
